Laboratory results: patent US8252822B2, “Heterocyclic compounds and uses as anticancer agents” (Acea Biosciences, Inc., priority 2007, dated 2012)

How the values were obtained:
A549 cells = assay: RT-CES cell proliferation inhibition, A549; assay type: cell-based, Human
Description: The biological activity of compounds disclosed herein was monitored and profiled using the Real-Time Cell Electronic Sensing (RT-CES®) system from ACEA Biosciences, Inc. The RT-CES system utilizes cell-substrate impedance technology to monitor cellular behavior inside tissue culture wells in a microtiter plate format. The technology features in the integration of molecular and cell biology with microelectronics and is based on the electronic detection of biological assay process. The details of this cell electronic sensing technology and associated devices, systems and methods of use as described in U.S. provisional application No. 60/379,749, filed on Jul. 20, 2002; U.S. provisional application No. 60/435,400, filed on Dec. 20, 2002; U.S. Provisional application 60/469,572, filed on May 9, 2003, PCT application number PCT/US03/22557, filed on Jul. 18, 2003; PCT application number PCT/US03/22537, filed on Jul. 18, 2003; U.S. patent application Ser. No. 10/705,447, filed on Nov. 10, 2003; U.S. patent application Ser. No. 10/705,615, filed on Nov. 10, 2003, each of which is incorporated by reference. Additional details of RT-CES technology is further disclosed in U.S. provisional application No. 60/519,567, filed on Nov. 12, 2003, and U.S. provisional application No. 60/542,927, filed on Feb. 9, 2004.
For measurement of cell-substrate or cell-electrode impedance using RT-CES technology, microelectrodes having appropriate geometries are fabricated onto the bottom surfaces of microtiter plate or similar device, facing into the wells. Cells are introduced into the wells of the devices, and make contact to and attach to the electrode surfaces. The presence, absence or change of properties of cells affects the electronic and ionic passage on the electrode sensor surfaces. Measuring the impedance between or among electrodes provides important information about biological status of cells present on the sensors. When there are changes to the biological status of the cells analogue electronic readout signals are measured automatically and in real time, and are converted to digital signals for processing and for analysis. In a RT-CES system, a cell index (arbitrary representation of change in impedance) is automatically derived and provided based on measured electrode impedance values. The cell index obtained for a given well reflects: 1) how many cells are attached to the electrode surfaces in this well; 2) how well cells are attached to the electrode surfaces in this well. Thus, the more the cells of same type in similar physiological conditions attach the electrode surfaces, the larger the cell index. And, the better the cells attach to the electrode surfaces (e.g., the cells spread-out more to have larger contact areas, or the cells attach tighter to electrode surfaces), the larger the cell index.
The RT-CES system comprises three components, an electronic sensor analyzer, a device station and 16× or 96× microtiter devices. Microelectrode sensor array was fabricated on glass slides with lithographical microfabrication methods and the electrode-containing slides are assembled to plastic trays to form electrode-containing wells. The device station receives the 16× or 96× microtiter plate devices and is capable of electronically switching any one of the wells to the sensor analyzer for impedance measurement. In operation, the devices with cells cultured in the wells are placed into a device station that is located inside an incubator. Electrical cables connect the device station to the sensor analyzer. Under the RT-CES software control, the sensor analyzer can automatically select wells to be measured and continuously conduct impedance measurements. The impedance data from the analyzer is transferred to a computer, analyzed and processed by the integrated software.
To quantify cell status based on the measured cell-electrode impedance, a parameter termed Cell Index is derived. […]

Row | Structure (SMILES) | melting point [°C] | response pattern of A549 cells compared with paclitaxel (A549 cells; 140 nM of compound vs 12.5 nM of paclitaxel) | response pattern of A549 cells compared with paclitaxel (A549 cells; 560 nM of compound vs 25 nM of paclitaxel) | concentration at or above which cell indices first decreased with time and then increased (A549 cells; A549, complex kinetic responses) [µM] | IC50 (A549 cells; Homo sapiens, A549, 24 hours after compound treatment, normalized Cell Index, read-out: IC50 (24 hr)) [nM] | inhibitory ability against the proliferation of A549 cells (A549 cells; various concentrations studied, time-dependent cell index)
1 | Br.Cc1nc2sccn2c1-c1csc(Nc2ccc(Br)cc2)n1 | > 250 | – | – | – | – | –
2 | Br.Cc1nc2sccn2c1-c1csc(Nc2ccc(Br)cc2)n1 [Compound 28, 2-(4-bromophenyl)amino-4-(6-methylimidazo[2,1-b]thiazol-5-yl)thiazole] | – | somewhat similar | somewhat similar | ≥ 0.14 | 86.4 | exhibited inhibitory ability against the proliferation of A549 cells
